Data taken from patent US7723289B2, “PIF tetrapeptides” (BioIncept, LLC, priority 2003, dated 2010).
Values joined by “and” are separate entries in the source; they are usually repeats but may differ in a detail not shown here. Equal entries are not always repeated.

What was measured:
[1] = tested on: donor lymphocytes and platelets; assay type: cell-based, human
Excerpt: The PIF assay, as disclosed in U.S. Pat. No. 5,646,003 to Barnea et al., entitled “Preimplantation Factor” issued Jul. 9, 1997, and in U.S. Pat. No. 5,981,198 to Barnea et al., entitled “Preimplantation Factor” granted Nov. 9, 1999, the disclosures of which are incorporated herein by reference in their entirety, may be used to measure the response of the immune system to pregnancy specific preimplantation factors. […] Lymphocyte-platelet rosettes result from the interaction of the T cell surface protein CD2 with its ligand CD58 expressed on the platelet membrane. Anti-CD2, by binding to the CD2 antigen on the T cells, inhibits their interaction with platelets.
(§1) Human PBMC were isolated by the Ficoll method. FITC-labeled nPIF-115 (SEQ ID NO: 1) and (FITC)-labeled scrPIF-1 (SEQ ID NO:5) and match-size irrelevant peptide (FITC)-labeled negative controls negPIF-1(15) (SEQ ID NO:11), were dissolved in PBS at concentrations ranging from 0.75 to 48.19 μM, and were incubated with 500,000 lymphocytes for 1 h at room temperature. The cells were washed 6 times with PBS and resuspended in 500 μl of the same buffer. T-cells and monocytes identification was performed in independent experiments by incubation with anti-CD3 and anti-CD14 antibody-phycoerithryn (PE) labeled. nPIF-115 (SEQ ID NO: 1) binding to PBMC was determined by flow cytometry. In addition, rosettes formed by T cell-platelets were detected by flow cytometry using anti-CD3 antibody-PE and anti-CD41a antibody-FITC (all antibodies were from Pharmingen Inc.).

[2] = tested on: PBMC; experiment: FITC-labeled PIF binding to PBMC subpopulations (flow cytometry); design: species or system human
Method: Expression of PIF-1(15) (SEQ ID NO:1), receptor following PHA induced PBMC proliferation CD-4 T cells; CD-8 T cells; NK cell and B cells (unstimulated-top); (PHA stimulated-bottom). Flow cytometry analysis of PBMC following exposure to FITC sPIF-1(15) (SEQ ID NO:13) % expression was determined in PBMC subtypes before and after exposure to 1 ug/ml PHA for 24 hours.
as §1
Using flow cytometry fluoroscein-labeled sPIF-115 (SEQ ID NO: 13) binding to immune cells was examined on resting PBMC.

[3] = tested on: CD3; experiment: CD3 expression in PBMC (flow cytometry, MAbCD3-PE); assay type: cell-based; conditions: PBMC exposed 3 days, 2-200 nM
Method: Fluorescent PIF peptides bind to immune cell membranes following activation. […] CD69 is expressed during activation of lymphocytes and monocytes, and is a marker of NK cells activation. CD25 is the receptor for IL-2, and a known activation marker as well. […] The expression of CD3 in PBMC was examined following exposure for 3 days to sPIF-1(15) (SEQ ID NO:13) (2-200 nM) using 20 ul MAbCD3-PE (BD).

[4] = tested on: CD2; experiment: CD2 expression in PBMC (flow cytometry, CD2MAb-FITC); assay type: cell-based; conditions: PBMC exposed 3 days
[5] = tested on: epithelial cells; experiment: PIF binding to endometrial epithelial cells (MaBCD2 staining); design: species or system human; conditions: compared to non-relevant IgG
Method: In addition, to compare the recovery of β-3 integrin expression with PIF effects described after cultured hEEC in a free-fetal bovine serum (FBS) medium some cells were cultured again in FBS-medium. […] PIF binding to epithelial cells was also examined. Binding was examined using MaBCD2 staining.

[6] = PBMC within 24 hrs of PHA activation

MVRIKPGSANKPSDD [sPIF-1(15)]
Increase in Rosette Formation [1]: >370% and >288% and >208%
increase in the number of rosettes in the presence of the anti-CD2 antibody [1]: four-fold increase
fluorescence-labeled peptide binding to human lymphocytes ([2]; FIG. 1(A)): dose dependent manner
B cells positive for fluorescent PIF binding [2, 6]: > 90%
T lymphocytes positive for fluorescent PIF binding [2, 6]: 60-80%
binding to platelets ([2]; basal state): not to platelets
binding to monocytes ([2]; basal state, unstimulated PBMC): binds all monocytes
binding to NK cells ([2]; even after several days in culture with PHA): did not appear to bind
binding site expression on resting T cells (CD4+, CD8+), B cells (CD19+), NK cells (CD56) ([2]; resting PBMC): very low
increase in CD3 receptor expression [3]: 215-420%
increase in CD2 expression [4]: 170-200%
binding to epithelial cells [5]: highest binding
